Assay results from patent US7605272B2, “IGF-1R inhibitor” (Kyowa Hakko Kirin Co., Ltd., priority 2005, dated 2009).
Where a name gives a salt, the structure may show the parent alone. Read-outs that look alike come from different tables or passages of the source.

How the values were obtained:
[1] = test system: KMS-11; assay: Cytostatic activity on human multiple myeloma cell line KMS-11 (WST-1); type: cell-based; conditions: Homo sapiens, KMS-11, 72 h; for inhibition at 10 µM: 10 μmol/L, read-out: cytostatic rate (%) KMS-11 (10 μmol/L); for inhibition at 1 µM: read-out: cytostatic rate (%) KMS-11 (1 μmol/L)
Protocol: The cytostatic rates of a test compound on human multiple myeloma cell lines NCI-H929 and KMS-11, were determined in the following manner.
For culturing NCI-H929, Roswell Park Memorial Institute's Medium (RPMI) 1640 (Gibco, Catalog No. 11875-093) containing 15% fetal bovine serum (Gibco, Catalog No. 10099-141), 1 mmol/L sodium pyruvate (Gibco, Catalog No. 11360-070), 10 mmol/L HEPES (Gibco, Catalog No. 15630-80), 4.5 g/L glucose (Sigma, Catalog No. G8769), 0.05 mmol/L 2-mercaptethanol (Nacalai Tesque, Catalog No. 21418-42) and penicillin/streptomycin (1:1) (Gibco, Catalog No. 15140-122) was used. For culturing KMS-11 cell, RPMI 1640 medium containing 10% fetal bovine serum and penicillin/streptomycin (1:1) was used. Each 80 μL of the NCI-H929 cell having a concentration of 1×10^5 cells/mL (or the KMS-11 cell having a concentration of 7.5×10^4 cells/mL) was inoculated to wells of a TC MICROWELL 96U plate (Nalge Nunc International, Catalog No. 163320) and was cultured in a 5% carbon dioxide gas incubator at 37° C. for 24 hours. Each 20 μL of a solution of the test compound in dimethyl sulfoxide (DMSO) which was prepared to make the final concentration to 1 μmol/L or 10 μmol/L, was added to each well. Each 20 μL of DMSO was added to the control well and the blank well to a final concentration of 0.1%. After adding the test compound, the cells were incubated in a 5% carbon dioxide gas incubator at 37° C. for 72 hours except for the blank well. After adding 20 μL of WST-1 reagent {4-[3-(4-iodophenyl)-2-(4-nitrophenyl)-2H-5-tetrazolio]-1,3-benzene disulfonate sodium salt} (Roche Diagnostics K.K., Catalog No. 1644807), which was diluted to 50% by RPMI medium to each well, the cells were further incubated at 37° C. for 2 hours. Then, the absorbances at 450 nm (reference wavelength: 690 nm) were measured with a microplate spectrophotometer SPECTRA max 340PC (Molecular Devices Corporation). The relative growth (%) of a well to which the test compound had been added and cultured for 72 hours was determined while setting the absorbance of a well to which not the test compound but DMSO alone had been added and cultured for 72 hours (control) as 100% and that of a well where the drugs are added (blank) as 0%. The cytostatic rate (%) of the test compound was determined by subtracting the calculated relative growth from 100.

[2] = test system: NCI-H929; assay: Cytostatic activity on human multiple myeloma cell line NCI-H929 (WST-1); type: cell-based; conditions: Homo sapiens, NCI-H929, 72 h; for inhibition at 10 µM: 10 μmol/L, read-out: cytostatic rate (%) H929 (10 μmol/L); for inhibition at 1 µM: read-out: cytostatic rate (%) H929 (1 μmol/L)
How it was run: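 Cytostatic rate is 100 minus % growth relative to DMSO-only wells (100%) and blank wells (0%), read by WST-1 absorbance at 450/690 nm after 2 h. Compound at 1 or 10 μmol/L final was applied for 72 h at 37 °C to cells seeded 24 h earlier.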

[3] = target: T1, IGF-1R (Homo sapiens, UniProt P08069); assay: IGF-1R inhibitory activity (kinase reaction, time-resolved fluoroimmunoassay); type: biochemical; conditions: IGF-1R active recombinant enzyme, test compound 10 μmol/L
T1 construct: purchased Upstate Co. 14-465
How it was run: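 Compounds were tested at a single 10 μmol/L concentration. Each was incubated with recombinant IGF-1R (200 μg/L), 10 mmol/L ATP, MgCl2/MnCl2 and Na3VO4 (pH 7.5) on immobilized poly(Glu-Tyr) peptide for 30 min at 24° C. Eu-anti-phosphotyrosine time-resolved fluorescence (340/615 nm) gave relative activity against no-compound and no-enzyme wells, reported as % inhibition.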

T1 sequence (P08069 959-1367 limits assumed): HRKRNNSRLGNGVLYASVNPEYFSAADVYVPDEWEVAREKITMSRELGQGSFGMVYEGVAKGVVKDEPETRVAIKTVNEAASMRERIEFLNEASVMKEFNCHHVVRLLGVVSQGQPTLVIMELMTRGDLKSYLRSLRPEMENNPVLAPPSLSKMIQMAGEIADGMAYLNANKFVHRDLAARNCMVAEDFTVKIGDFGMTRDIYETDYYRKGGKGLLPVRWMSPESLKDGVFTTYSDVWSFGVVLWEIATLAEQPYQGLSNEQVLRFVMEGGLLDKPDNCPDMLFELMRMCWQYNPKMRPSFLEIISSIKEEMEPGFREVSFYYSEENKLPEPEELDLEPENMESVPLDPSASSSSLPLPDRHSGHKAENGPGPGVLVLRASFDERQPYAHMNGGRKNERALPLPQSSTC

With `O=C(Nc1ccccc1/C=C/c1n[nH]c2ccccc12)c1ccco1` [Compound 11, (E)-N-{2-[2-(1H-indazol-3-yl)vinyl]phenyl}furan-2-carboxamide] the inhibition at 10 µM ([1]; 72 hours) was 120%, the inhibition at 10 µM ([2]; 72 hours) was 116% and the inhibition at 10 µM [3] was 99.4%.
For `COC(=O)c1c[nH]c(-c2ccccc2/C=C/c2n[nH]c3ccccc23)n1` [Compound 195, (E)-2-{2-[2-(1H-indazol-3-yl)vinyl]phenyl}-3H-imidazole-4-carboxylic acid methyl ester], the inhibition at 10 µM ([1]; 72 hours) was 97.7%, the inhibition at 10 µM ([2]; 72 hours) was 111% and the inhibition at 10 µM [3] was 100%.
`Cc1ccsc1C(=O)Nc1cc(CN2CCN(CCCO)CC2)ccc1/C=C/c1n[nH]c2ccccc12` [Compound 277, (E)-N-{5-[4-(3-hydroxypropyl)piperazin-1-ylmethyl]-2-[2-(1H-indazol-3-yl)vinyl]phenyl}-3-methylthiophene-2-carboxamide] showed an inhibition at 1 µM ([1]; 1 μmol/L, 72 hours) of 107%, an inhibition at 1 µM ([2]; 1 μmol/L, 72 hours) of 119% and an inhibition at 10 µM [3] of 99.5%.
In the case of `CN(C)C(=O)c1ccc(/C=C/c2n[nH]c3ccccc23)c(N2C(=O)c3cccc(N)c3C2=O)c1` [Compound 326, (E)-3-(4-amino-1,3-dioxo-1,3-dihydroisoindol-2-yl)-4-[2-(1H-indazol-3-yl)vinyl]-N,N-dimethylbenzamide], the inhibition at 1 µM ([1]; KMS-11 cells, test compound 1 μmol/L, WST-1) is reported as 102%, the inhibition at 1 µM ([2]; NCI-H929 cells, test compound 1 μmol/L, WST-1) is reported as 118% and the inhibition at 10 µM [3] is reported as 103%.
`O=C(Nc1ccccc1/C=C/c1n[nH]c2ccccc12)c1ccc([N+](=O)[O-])cc1` [Compound 65, (E)-N-{2-[2-(1H-indazol-3-yl)vinyl]phenyl}-4-nitrobenzamide] was tested, and the inhibition at 10 µM ([1]; 72 hours) was 120%, the inhibition at 10 µM ([2]; 72 hours) was 109% and the inhibition at 10 µM [3] was 97.9%.
`Cc1ccsc1C(=O)Nc1ccc(N2CCC(S(C)(=O)=O)CC2)cc1/C=C/c1n[nH]c2ccccc12` [Compound 227, (E)-N-{2-[2-(1H-indazol-3-yl)vinyl]-4-(4-methanesulfonylpiperidin-1-yl)phenyl}-3-methylthiophene-2-carboxamide hydrochloride] showed an inhibition at 1 µM ([1]; 1 μmol/L, 72 hours) of 52.9%, an inhibition at 1 µM ([2]; 1 μmol/L, 72 hours) of 113% and an inhibition at 10 µM [3] of 98.9%.
Work on `CCN(CC)CCN(CCO)C(=O)c1ccc(/C=C/c2n[nH]c3ccccc23)c(NC(=O)c2sccc2C)c1` [Compound 255, (E)-N-(5-{N-[2-(diethylamino)ethyl]-N-(2-hydroxyethyl)carbamoyl}-2-[2-(1H-indazol-3-yl)vinyl]phenyl)-3-methylthiophene-2-carboxamide] yielded an inhibition at 1 µM ([1]; 1 μmol/L, 72 hours) of 97.6%, an inhibition at 1 µM ([2]; 1 μmol/L, 72 hours) of 121% and an inhibition at 10 µM [3] of 100%.
`COCCOc1ccc(/C=C/c2n[nH]c3ccccc23)c(NC(=O)c2sccc2C)c1` [Compound 275, (E)-N-{2-[2-(1H-indazol-3-yl)vinyl]-5-(2-methoxyethoxy)phenyl}-3-methylthiophene-2-carboxamide] gave an inhibition at 1 µM ([1]; 1 μmol/L, 72 hours) of 116%, an inhibition at 1 µM ([2]; 1 μmol/L, 72 hours) of 118% and an inhibition at 10 µM [3] of 98.6%.
Work on `O=S(=O)(Nc1ccccc1/C=C/c1n[nH]c2ccccc12)c1ccccc1` [Compound 16, (E)-N-{2-[2-(1H-indazol-3-yl)vinyl]phenyl}benzenesulfonamide] yielded an inhibition at 10 µM ([1]; 72 hours) of 85.2%, an inhibition at 10 µM ([2]; 72 hours) of 64.7% and an inhibition at 10 µM [3] of 59.2%.
`O=C(Nc1ccccc1/C=C/c1n[nH]c2ccccc12)c1cscn1` [Compound 36, (E)-N-{2-[2-(1H-indazol-3-yl)vinyl]phenyl}thiazole-4-carboxamide] was tested, and the inhibition at 10 µM ([1]; 72 hours) was 116%, the inhibition at 10 µM ([2]; 72 hours) was 112% and the inhibition at 10 µM [3] was 98.6%.
`Cc1ccsc1C(=O)Nc1cc(CN2CCC(N(C)C)C2)ccc1/C=C/c1n[nH]c2ccccc12` (stereo not drawn) [Compound 294, (E)-N-{5-[3-(dimethylamino)pyrrolidin-1-ylmethyl]-2-[2-(1H-indazol-3-yl)vinyl]phenyl}-3-methylthiophene-2-carboxamide] gave an inhibition at 1 µM ([1]; 1 μmol/L, 72 hours) of 116%, an inhibition at 1 µM ([2]; 1 μmol/L, 72 hours) of 118% and an inhibition at 10 µM [3] of 98.2%.
